In PubChem BioAssay AID1259407 (Chemical Carcinogenesis Research Information System (CCRIS), 2018):
The source made the active and inactive calls. No rule for the calls is given here.

Tested on: CCRIS mutagenicity, Ames/micronucleus/aberration tests
Assay: CCRIS mutagenicity studies

ClC(Cl)=C(Cl)Cl
mutagenic call (End Point: IN VITRO CHROMOSOMAL ABERRATIONS, Test System: CHINESE HAMSTER OVARY CELLS, Metabolic Activation: NONE): inactive; negative
mutagenic call (End Point: IN VITRO CHROMOSOMAL ABERRATIONS, Test System: CHINESE HAMSTER OVARY CELLS, Metabolic Activation: RAT, LIVER, S-9, AROCLOR 1254): inactive; negative
mutagenic call (End Point: IN VITRO CHROMOSOMAL ABERRATIONS, Test System: CHL/IU CELLS, Metabolic Activation: NONE): inactive; negative
mutagenic call (End Point: IN VITRO CHROMOSOMAL ABERRATIONS, Test System: CHO CELLS, Metabolic Activation: NONE): inactive; negative
mutagenic call (End Point: IN VITRO CHROMOSOMAL ABERRATIONS, Test System: CHO CELLS, Metabolic Activation: RAT, LIVER, S-9, AROCLOR 1254): inactive; negative
mutagenic call (End Point: IN VITRO MICRONUCLEUS, Test System: CHL/IU CELLS, Metabolic Activation: NONE): inactive; negative
mutagenic call (Test System: AMES SALMONELLA TYPHIMURIUM, Strain/Indicator: TA98, Metabolic Activation: HAMSTER, LIVER, S-9, AROCLOR 1254, Method: PREINCUBATION): inactive; negative
mutagenic call (Test System: AMES SALMONELLA TYPHIMURIUM, Strain/Indicator: TA98, Metabolic Activation: NONE, Method: PREINCUBATION): inactive; negative
mutagenic call (Test System: AMES SALMONELLA TYPHIMURIUM, Strain/Indicator: TA98, Metabolic Activation: NONE, Method: STANDARD PLATE): inactive; negative
mutagenic call (Test System: AMES SALMONELLA TYPHIMURIUM, Strain/Indicator: TA98, Metabolic Activation: RAT, LIVER, S-9, AROCLOR 1254, Method: PREINCUBATION): inactive; negative
mutagenic call (Test System: AMES SALMONELLA TYPHIMURIUM, Strain/Indicator: TA98, Metabolic Activation: RAT, LIVER, S-9, AROCLOR, Method: STANDARD PLATE): inactive; negative
mutagenic call (Test System: AMES SALMONELLA TYPHIMURIUM, Strain/Indicator: TA100, Metabolic Activation: HAMSTER, LIVER, S-9, AROCLOR 1254, Method: PREINCUBATION): inactive; negative
mutagenic call (Test System: AMES SALMONELLA TYPHIMURIUM, Strain/Indicator: TA100, Metabolic Activation: HAMSTER, LIVER, S-9, SODIUM PHENOBARBITAL, Method: STANDARD PLATE (SEALED PLATE)): inactive; negative
mutagenic call (Test System: AMES SALMONELLA TYPHIMURIUM, Strain/Indicator: TA100, Metabolic Activation: MOUSE, LIVER, S-9, SODIUM PHENOBARBITAL, Method: STANDARD PLATE (SEALED PLATE)): inactive; negative
mutagenic call (Test System: AMES SALMONELLA TYPHIMURIUM, Strain/Indicator: TA100, Metabolic Activation: NONE, Method: BAG VAPORIZATION): inactive; negative
mutagenic call (Test System: AMES SALMONELLA TYPHIMURIUM, Strain/Indicator: TA100, Metabolic Activation: NONE, Method: PREINCUBATION): inactive; negative
mutagenic call (Test System: AMES SALMONELLA TYPHIMURIUM, Strain/Indicator: TA100, Metabolic Activation: NONE, Method: SPOT): active; positive
mutagenic call (Test System: AMES SALMONELLA TYPHIMURIUM, Strain/Indicator: TA100, Metabolic Activation: NONE, Method: STANDARD PLATE): inactive; negative
mutagenic call (Test System: AMES SALMONELLA TYPHIMURIUM, Strain/Indicator: TA100, Metabolic Activation: NONE, Method: STANDARD PLATE (SEALED PLATE)): inactive; negative
mutagenic call (Test System: AMES SALMONELLA TYPHIMURIUM, Strain/Indicator: TA100, Metabolic Activation: RAT, KIDNEY, MICROSOMES AND RAT, LIVER, GLUTATHIONE AND GLUTATHIONE TRANSFERASE, Method: PREINCUBATION): active; positive
mutagenic call (Test System: AMES SALMONELLA TYPHIMURIUM, Strain/Indicator: TA100, Metabolic Activation: RAT, LIVER, S-9, AROCLOR 1254, Method: BAG VAPORIZATION): inactive; negative
mutagenic call (Test System: AMES SALMONELLA TYPHIMURIUM, Strain/Indicator: TA100, Metabolic Activation: RAT, LIVER, S-9, AROCLOR 1254, Method: PREINCUBATION): inactive; negative
mutagenic call (Test System: AMES SALMONELLA TYPHIMURIUM, Strain/Indicator: TA100, Metabolic Activation: RAT, LIVER, S-9, AROCLOR, Method: STANDARD PLATE): inactive; negative
mutagenic call (Test System: AMES SALMONELLA TYPHIMURIUM, Strain/Indicator: TA100, Metabolic Activation: RAT, LIVER, S-9, SODIUM PHENOBARBITAL, Method: STANDARD PLATE (SEALED PLATE)): inactive; negative
mutagenic call (Test System: AMES SALMONELLA TYPHIMURIUM, Strain/Indicator: TA102, Metabolic Activation: MOUSE, LIVER, S-9, SODIUM PHENOBARBITAL, Method: STANDARD PLATE (SEALED PLATE)): inactive; negative
mutagenic call (Test System: AMES SALMONELLA TYPHIMURIUM, Strain/Indicator: TA102, Metabolic Activation: NONE, Method: STANDARD PLATE (SEALED PLATE)): inactive; negative
mutagenic call (Test System: AMES SALMONELLA TYPHIMURIUM, Strain/Indicator: TA102, Metabolic Activation: S-9, Method: STANDARD PLATE): inactive; negative
mutagenic call (Test System: AMES SALMONELLA TYPHIMURIUM, Strain/Indicator: TA104, Metabolic Activation: MOUSE, LIVER, S-9, SODIUM PHENOBARBITAL, Method: STANDARD PLATE (SEALED PLATE)): inactive; negative
mutagenic call (Test System: AMES SALMONELLA TYPHIMURIUM, Strain/Indicator: TA104, Metabolic Activation: NONE, Method: STANDARD PLATE (SEALED PLATE)): inactive; negative
mutagenic call (Test System: AMES SALMONELLA TYPHIMURIUM, Strain/Indicator: TA1535, Metabolic Activation: HAMSTER, LIVER, S-9, AROCLOR 1254, Method: PREINCUBATION): inactive; negative
mutagenic call (Test System: AMES SALMONELLA TYPHIMURIUM, Strain/Indicator: TA1535, Metabolic Activation: MOUSE, LIVER, S-9, SODIUM PHENOBARBITAL, Method: STANDARD PLATE (SEALED PLATE)): inactive; negative
mutagenic call (Test System: AMES SALMONELLA TYPHIMURIUM, Strain/Indicator: TA1535, Metabolic Activation: NONE, Method: PREINCUBATION): inactive; negative
mutagenic call (Test System: AMES SALMONELLA TYPHIMURIUM, Strain/Indicator: TA1535, Metabolic Activation: NONE, Method: STANDARD PLATE (SEALED PLATE)): inactive; negative
mutagenic call (Test System: AMES SALMONELLA TYPHIMURIUM, Strain/Indicator: TA1535, Metabolic Activation: RAT, LIVER, S-9, AROCLOR 1254, Method: PREINCUBATION): inactive; negative
mutagenic call (Test System: AMES SALMONELLA TYPHIMURIUM, Strain/Indicator: TA1537, Metabolic Activation: HAMSTER, LIVER, S-9, AROCLOR 1254, Method: PREINCUBATION): inactive; negative
mutagenic call (Test System: AMES SALMONELLA TYPHIMURIUM, Strain/Indicator: TA1537, Metabolic Activation: NONE, Method: PREINCUBATION): inactive; negative
mutagenic call (Test System: AMES SALMONELLA TYPHIMURIUM, Strain/Indicator: TA1537, Metabolic Activation: RAT, LIVER, S-9, AROCLOR 1254, Method: PREINCUBATION): inactive; negative
mutagenic call (Test System: AMES SALMONELLA TYPHIMURIUM, Strain/Indicator: TA2638, Metabolic Activation: S-9, Method: STANDARD PLATE): inactive; negative
mutagenic call (Test System: AMES SALMONELLA TYPHIMURIUM, Strain/Indicator: UTH8413, Metabolic Activation: NONE, Method: STANDARD PLATE): inactive; negative
mutagenic call (Test System: AMES SALMONELLA TYPHIMURIUM, Strain/Indicator: UTH8413, Metabolic Activation: RAT, LIVER, S-9, AROCLOR, Method: STANDARD PLATE): inactive; negative
mutagenic call (Test System: AMES SALMONELLA TYPHIMURIUM, Strain/Indicator: UTH8414, Metabolic Activation: NONE, Method: STANDARD PLATE): inactive; negative
mutagenic call (Test System: AMES SALMONELLA TYPHIMURIUM, Strain/Indicator: UTH8414, Metabolic Activation: RAT, LIVER, S-9, AROCLOR, Method: STANDARD PLATE): inactive; negative
mutagenic call (Test System: Ames Salmonella typhimurium, Strain/Indicator: TA98, Metabolic Activation: None, Method: Gas exposure method): inactive; negative (two experiments)
mutagenic call (Test System: Ames Salmonella typhimurium, Strain/Indicator: TA98, Metabolic Activation: Rat, Liver, S9, Sodium phenobarbital and 5,6-benzoflavone (10%), Method: Gas exposure method): inactive; negative (two experiments)
mutagenic call (Test System: Ames Salmonella typhimurium, Strain/Indicator: TA100, Metabolic Activation: None, Method: Gas exposure method): inactive; negative (two experiments)
mutagenic call (Test System: Ames Salmonella typhimurium, Strain/Indicator: TA100, Metabolic Activation: Rat, Liver, S9, Sodium phenobarbital and 5,6-benzoflavone (10%), Method: Gas exposure method): inactive; negative (two experiments)
mutagenic call (Test System: Ames Salmonella typhimurium, Strain/Indicator: TA1535, Metabolic Activation: None, Method: Gas exposure method): active; positive (two experiments)
mutagenic call (Test System: Ames Salmonella typhimurium, Strain/Indicator: TA1535, Metabolic Activation: Rat, Liver, S9, Sodium phenobarbital and 5,6-benzoflavone (10%), Method: Gas exposure method): active; positive (two experiments)
mutagenic call (Test System: Ames Salmonella typhimurium, Strain/Indicator: TA1537, Metabolic Activation: None, Method: Gas exposure method): inactive; negative (two experiments)
mutagenic call (Test System: Ames Salmonella typhimurium, Strain/Indicator: TA1537, Metabolic Activation: Rat, Liver, S9, Sodium phenobarbital and 5,6-benzoflavone (10%), Method: Gas exposure method): inactive; negative (two experiments)
mutagenic call (Test System: CHO/HGPRT, Strain/Indicator: CHO/GIEMSA, Metabolic Activation: NONE, Method: STANDARD PLATE): inactive; negative
mutagenic call (Test System: CHO/HGPRT, Strain/Indicator: CHO/GIEMSA, Metabolic Activation: RAT, LIVER, S-9, AROCLOR 1254, Method: STANDARD PLATE): inactive; negative
mutagenic call (Test System: E. COLI, Strain/Indicator: WP2 (PKM101), Metabolic Activation: S-9, Method: STANDARD PLATE): inactive; negative
mutagenic call (Test System: E. COLI, Strain/Indicator: WP2 UVRA (PKM101), Metabolic Activation: S-9, Method: STANDARD PLATE): inactive; negative
mutagenic call (Test System: E. coli, Strain/Indicator: WP2uvrA/pKM101, Metabolic Activation: None, Method: Gas exposure method): inactive; negative (two experiments)
mutagenic call (Test System: E. coli, Strain/Indicator: WP2uvrA/pKM101, Metabolic Activation: Rat, Liver, S9, Sodium phenobarbital and 5,6-benzoflavone (10%), Method: Gas exposure method): inactive; negative (two experiments)
mutagenic call (Test System: MOUSE LYMPHOMA, Strain/Indicator: L5178Y (TK+/TK-), Metabolic Activation: NONE, Method: SUSPENSION/PLATE): inactive; negative
mutagenic call (Test System: MOUSE LYMPHOMA, Strain/Indicator: L5178Y (TK+/TK-), Metabolic Activation: RAT, LIVER, S-9, AROCLOR 1254, Method: SUSPENSION/PLATE): inactive; negative
